Source: patent publication US8440819B2, “Therapeutic substituted beta-lactams” (Allergan, Inc., priority 2008, dated 2013)

How the values were obtained:
[1] = biological target: T1, EP2 (Homo sapiens, UniProt P43116); assay: EP2 flipr; format: cell-based
Source text: (§1) U.S. patent application Ser. No. 11/553,143, filed on Oct. 26, 2006, incorporated by reference herein, describes the methods used to obtain the in vitro data in Table 1 below.

[2] = biological target: T1, EP2; assay: EP2 cAMP; format: cell-based
Source text: as §1

[3] = biological target: T1, EP2; assay: EP2 binding (Ki)
Source text: as §1

[4] = biological target: T2, EP4 (Homo sapiens, UniProt P35408); assay: EP4 flipr; format: cell-based
Source text: as §1

[5] = biological target: T2, EP4; assay: EP4 binding (Ki); settings: read-out: EP4 data Kl
Source text: as §1

[6] = biological target: T3, hEP3A (Homo sapiens, UniProt P43115); assay: Other receptors functional EC50, hEP3A; format: cell-based
T3 sequence (P43115 1-390): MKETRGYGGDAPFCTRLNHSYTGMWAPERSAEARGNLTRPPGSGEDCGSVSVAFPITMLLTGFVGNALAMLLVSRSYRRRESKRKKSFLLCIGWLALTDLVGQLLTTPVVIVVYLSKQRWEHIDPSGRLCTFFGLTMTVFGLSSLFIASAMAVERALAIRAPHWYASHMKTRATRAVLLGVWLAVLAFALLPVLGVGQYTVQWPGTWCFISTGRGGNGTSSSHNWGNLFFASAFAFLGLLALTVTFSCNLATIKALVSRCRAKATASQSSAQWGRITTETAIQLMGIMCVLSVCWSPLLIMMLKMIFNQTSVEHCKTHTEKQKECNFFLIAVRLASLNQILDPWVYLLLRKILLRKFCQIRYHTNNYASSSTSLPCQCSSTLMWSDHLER
Source text: as §1

[7] = biological target: T4, hDP (Homo sapiens, UniProt Q13258); assay: Other receptors functional EC50, hDP; format: cell-based
T4 sequence (Q13258 1-359): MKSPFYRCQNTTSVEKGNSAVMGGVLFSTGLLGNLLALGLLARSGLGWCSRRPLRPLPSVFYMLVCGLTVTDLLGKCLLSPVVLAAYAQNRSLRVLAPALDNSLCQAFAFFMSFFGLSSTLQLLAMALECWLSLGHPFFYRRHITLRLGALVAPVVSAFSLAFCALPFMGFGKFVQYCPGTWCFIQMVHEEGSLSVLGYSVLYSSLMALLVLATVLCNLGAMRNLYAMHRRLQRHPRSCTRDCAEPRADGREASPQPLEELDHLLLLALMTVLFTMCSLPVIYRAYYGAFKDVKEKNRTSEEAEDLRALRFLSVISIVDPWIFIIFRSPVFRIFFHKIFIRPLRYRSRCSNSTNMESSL
Source text: as §1

[8] = tested on: normotensive dogs; assay: Intraocular pressure and ocular surface hyperemia in normotensive dogs; format: in vivo, dog; settings: 0.01%, once daily for 5 days
Experimental: (§2) U.S. Pat. No. 7,091,231 describes the methods used to carry out the tests reported below.
(§3) Isopropyl (5-(3-((2S)-1-(4-(1-hydroxyhexyl)phenyl)-4-oxoazetidin-2-yl)propyl)thiophene-2-carboxylate (12) was tested in normotensive dogs at 0.01%, dosing once daily for 5 days. The maximum intraocular pressure (IOP) decrease from baseline was 3.7 mmHg (25%) at 6 h; the maximum ocular surface hyperemia (OSH) score was 1.7 at 50 h. This compound was also tested in laser-induced hypertensive monkeys, using one single day dose. At 0.01%, the maximum IOP decrease from baseline was 12.6 mmHg (35%) at 24 h.

[9] = tested on: laser-induced hypertensive monkeys; assay: Intraocular pressure in laser-induced hypertensive monkeys; format: in vivo, monkey; settings: 0.01%, one single day dose, at 24 h
Experimental: as §2, §3

T1 sequence (P43116 whole entry): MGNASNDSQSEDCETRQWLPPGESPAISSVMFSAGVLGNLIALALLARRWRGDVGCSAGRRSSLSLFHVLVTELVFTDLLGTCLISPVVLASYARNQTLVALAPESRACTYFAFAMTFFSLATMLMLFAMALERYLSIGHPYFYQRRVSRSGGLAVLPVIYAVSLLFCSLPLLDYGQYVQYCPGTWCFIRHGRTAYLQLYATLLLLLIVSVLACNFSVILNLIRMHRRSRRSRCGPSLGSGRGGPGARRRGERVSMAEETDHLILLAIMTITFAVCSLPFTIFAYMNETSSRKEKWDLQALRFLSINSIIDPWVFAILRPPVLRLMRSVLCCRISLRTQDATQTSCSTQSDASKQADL
T2 sequence (P35408 whole entry): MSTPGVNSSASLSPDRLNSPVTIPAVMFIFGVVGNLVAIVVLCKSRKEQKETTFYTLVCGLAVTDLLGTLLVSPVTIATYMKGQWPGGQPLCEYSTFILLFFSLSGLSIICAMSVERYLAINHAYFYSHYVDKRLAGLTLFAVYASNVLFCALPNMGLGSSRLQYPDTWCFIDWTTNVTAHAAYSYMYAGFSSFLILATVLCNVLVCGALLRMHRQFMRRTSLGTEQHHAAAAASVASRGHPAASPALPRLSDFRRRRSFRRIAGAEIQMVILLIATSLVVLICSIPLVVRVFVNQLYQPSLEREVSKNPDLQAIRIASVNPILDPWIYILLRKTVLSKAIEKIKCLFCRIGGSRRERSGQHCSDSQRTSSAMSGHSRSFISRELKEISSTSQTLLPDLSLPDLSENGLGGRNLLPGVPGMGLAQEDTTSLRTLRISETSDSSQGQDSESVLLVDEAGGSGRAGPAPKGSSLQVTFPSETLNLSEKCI

| EC50 [1] [nM] | EC50 [2] [nM] | Ki [3] [nM] | EC50 [4] [nM] | Ki [5] [nM] | EC50 [6] [nM] | EC50 [7] [nM] | maximum ocular surface hyperemia (OSH) score ([8]; at 50 h) | Structure (SMILES) | maximum intraocular pressure (IOP) decrease from baseline ([8]; at 6 h) [mmHg] | maximum intraocular pressure (IOP) decrease from baseline, percent ([8]; at 6 h) [%] | maximum IOP decrease from baseline [9] [mmHg] | maximum IOP decrease from baseline, percent [9] [%] |
| --- | --- | --- | --- | --- | --- | --- | --- | --- | --- | --- | --- | --- |
| 1.1 | 0.4 | 10 | > 10000 | 1450 | 42 | 4740 |  | CCCCCC(O)c1ccc(N2C(=O)C[C@@H]2CCCc2ccc(C(=O)O)s2)cc1 (mixture of isomers) [compound 11] |  |  |  |  |
|  |  |  |  |  |  |  | 1.7 | CCCCCC(O)c1ccc(N2C(=O)C[C@@H]2CCCc2ccc(C(=O)OC(C)C)s2)cc1 (stereo partly drawn) [compound 12] | 3.7 | 25 | 12.6 | 35 |
